Assay results as given in PMC8111447 (Frontiers in Pharmacology, 2021).

Columns and labels:
H3255 (EGFR^L858R) = test: Cell proliferation assay (CTG, 72 h); assay type: cell-based, human; details: for IC50: Homo sapiens, NCI-H3255, H3255 cells, 72 h, mean ± SD, n = 3
Method: (§1) Human lung cancer cell lines (NCI-H1975, H3255 and A431) were obtained from the American Type Culture Collection (ATCC), while PC-9 cell line was supplied by the European Collection of Authenticated Cell Cultures (ECACC). For in vivo implantation, NCI-H1975, H3255 and PC-9 cells were cultured in RPMI1640 (Invitrogen) supplemented with 10% v/v fetal calf serum (Sigma-Aldrich) and 2 mmol/L L-glutamine (Invitrogen). A431 cells were cultured in DMEM (Invitrogen) supplemented with 10% v/v fetal calf serum and 2 mmol/L v/v L-glutamine. All cell lines were then cultured in a humidified incubator with 5% CO2 at 37°C.
(§2) Test compounds were dissolved in DMSO as a 10 mmol/L stock solution. The initial concentration of compounds were 10 μmol/L and the 3-fold dilution was nine times. […] Plate was shaked for 2 min and the mixture was incubated at room temperature for 10 min.
(§3) The half-maximal inhibition concentration (IC50) values were processed by GraphPad Prism7 (GraphPad Software; La Jolla, CA).

PC-9 (EGFR^d746–750) = test: Cell proliferation assay (CTG, 72 h); assay type: cell-based, human; details: for IC50: Homo sapiens, PC-9 cells, 72 h, mean ± SD, n = 3
Method: as §1, §2, §3

[1] = system: EGFR phosphorylation in NCI-H1975 cells; test: Phosphorylation of EGFR assay after wash-out; assay type: cell-based, human; details: 0.1 μmol/L for 2 h, then washed out
Method: (§4) Cells (NCI-H1975/PC-9/[…]) were seeded into a 384-well plate (10,000 cells/well), grown for 24 h, and then treated with 0.1 μmol/L of test compounds for 2 h. Cells were washed with fresh medium once. Then, 50 μl of medium was added in each well and the plate was cultured in an incubator for 0, 1, 2, 6 and 24 h. Cells were washed with ice-cold Hanks Balanced Salt Solution (HBSS) before extraction with 25 μl cell lysis buffer. The phosphorylation levels of EGFR were measured as described above.

[2] = system: EGFR phosphorylation in PC-9 cells; test: Phosphorylation of EGFR assay after wash-out; assay type: cell-based, human; details: 0.1 μmol/L for 2 h, then washed out
Method: as §4

MYO3B(h) = biological target: T1, MYO3B(h) (Homo sapiens, UniProt Q8WXR4); test: Kinase panel (Eurofins); assay type: biochemical; details: n = 2; for inhibition at 1 µM: at 1 μmol/L; for IC50: read-out: IC50 kinase inhibition
T1 construct: purchased Eurofins
T1 sequence (Q8WXR4 1-1341): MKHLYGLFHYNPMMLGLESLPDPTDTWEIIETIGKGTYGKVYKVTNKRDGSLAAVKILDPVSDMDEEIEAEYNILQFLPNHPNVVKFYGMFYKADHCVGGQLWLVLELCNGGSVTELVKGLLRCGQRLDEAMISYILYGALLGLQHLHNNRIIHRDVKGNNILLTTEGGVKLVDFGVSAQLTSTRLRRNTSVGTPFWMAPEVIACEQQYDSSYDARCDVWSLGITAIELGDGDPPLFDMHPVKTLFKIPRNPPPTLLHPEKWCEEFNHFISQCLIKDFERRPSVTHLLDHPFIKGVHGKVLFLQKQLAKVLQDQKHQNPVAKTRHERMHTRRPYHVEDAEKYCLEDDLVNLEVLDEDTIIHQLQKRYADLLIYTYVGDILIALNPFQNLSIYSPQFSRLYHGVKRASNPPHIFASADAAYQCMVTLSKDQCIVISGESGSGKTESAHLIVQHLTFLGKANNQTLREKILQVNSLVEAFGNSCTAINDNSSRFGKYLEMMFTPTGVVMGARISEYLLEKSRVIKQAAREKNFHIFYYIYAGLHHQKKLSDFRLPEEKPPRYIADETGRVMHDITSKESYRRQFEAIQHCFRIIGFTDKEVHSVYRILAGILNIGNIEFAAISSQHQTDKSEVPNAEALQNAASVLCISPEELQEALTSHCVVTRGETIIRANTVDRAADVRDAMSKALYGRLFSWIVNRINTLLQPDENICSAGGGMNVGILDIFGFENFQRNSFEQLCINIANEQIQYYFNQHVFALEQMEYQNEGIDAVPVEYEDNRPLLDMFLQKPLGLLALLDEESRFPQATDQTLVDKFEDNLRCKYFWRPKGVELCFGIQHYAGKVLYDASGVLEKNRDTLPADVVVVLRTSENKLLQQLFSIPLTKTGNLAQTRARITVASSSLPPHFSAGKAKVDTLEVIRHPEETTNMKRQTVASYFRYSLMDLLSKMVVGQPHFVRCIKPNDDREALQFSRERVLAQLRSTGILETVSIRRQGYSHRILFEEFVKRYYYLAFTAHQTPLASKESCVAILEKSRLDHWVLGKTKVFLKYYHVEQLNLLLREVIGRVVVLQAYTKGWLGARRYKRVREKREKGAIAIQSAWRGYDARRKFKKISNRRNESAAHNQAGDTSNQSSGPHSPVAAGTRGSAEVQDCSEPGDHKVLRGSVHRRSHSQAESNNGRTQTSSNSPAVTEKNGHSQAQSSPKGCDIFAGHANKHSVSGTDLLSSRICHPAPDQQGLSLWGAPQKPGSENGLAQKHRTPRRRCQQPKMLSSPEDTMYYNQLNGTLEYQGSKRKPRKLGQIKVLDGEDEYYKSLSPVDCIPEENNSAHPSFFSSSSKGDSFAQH
Text: (§5) These receptors have a methionine gatekeeper in their kinase domains, and are related to hyperglycemia in other clinical trials of EGFR TKI, such as Co-1686.

LTK(h) = biological target: T2, LTK(h) (Homo sapiens, UniProt P29376); test: Kinase panel (Eurofins); assay type: biochemical; details: n = 2; for inhibition at 1 µM: at 1 μmol/L; for IC50: read-out: IC50 kinase inhibition
T2 construct: purchased Eurofins
T2 sequence (P29376 17-864): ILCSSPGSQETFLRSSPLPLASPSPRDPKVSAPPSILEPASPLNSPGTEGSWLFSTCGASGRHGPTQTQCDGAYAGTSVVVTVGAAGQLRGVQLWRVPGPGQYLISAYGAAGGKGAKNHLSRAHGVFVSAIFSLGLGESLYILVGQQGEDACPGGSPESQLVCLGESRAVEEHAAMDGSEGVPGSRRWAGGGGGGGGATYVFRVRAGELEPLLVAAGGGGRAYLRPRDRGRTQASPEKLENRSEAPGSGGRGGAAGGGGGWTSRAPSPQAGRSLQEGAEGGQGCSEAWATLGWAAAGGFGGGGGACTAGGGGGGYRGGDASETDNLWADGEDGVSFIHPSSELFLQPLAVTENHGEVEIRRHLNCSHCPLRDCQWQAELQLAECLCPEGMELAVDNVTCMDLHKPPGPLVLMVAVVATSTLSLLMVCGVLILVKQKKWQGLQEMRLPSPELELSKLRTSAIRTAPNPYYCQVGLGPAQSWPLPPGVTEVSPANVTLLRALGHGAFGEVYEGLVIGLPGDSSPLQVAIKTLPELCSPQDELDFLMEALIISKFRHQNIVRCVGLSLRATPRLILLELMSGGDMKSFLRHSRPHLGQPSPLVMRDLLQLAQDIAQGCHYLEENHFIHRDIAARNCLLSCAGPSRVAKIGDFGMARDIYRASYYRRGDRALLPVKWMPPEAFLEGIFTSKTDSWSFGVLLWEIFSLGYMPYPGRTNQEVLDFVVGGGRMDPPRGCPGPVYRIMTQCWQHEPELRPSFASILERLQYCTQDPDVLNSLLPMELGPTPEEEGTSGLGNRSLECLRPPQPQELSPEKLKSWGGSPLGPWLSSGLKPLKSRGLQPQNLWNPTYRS
Text: as §5

ErbB2(h) = biological target: T3, ErbB2(h) (Homo sapiens, UniProt P04626); test: Kinase panel (Eurofins); assay type: biochemical; details: n = 2; for inhibition at 1 µM: at 1 μmol/L; for IC50: read-out: IC50 kinase inhibition
T3 construct: purchased Eurofins
T3 sequence (P04626 23-1255): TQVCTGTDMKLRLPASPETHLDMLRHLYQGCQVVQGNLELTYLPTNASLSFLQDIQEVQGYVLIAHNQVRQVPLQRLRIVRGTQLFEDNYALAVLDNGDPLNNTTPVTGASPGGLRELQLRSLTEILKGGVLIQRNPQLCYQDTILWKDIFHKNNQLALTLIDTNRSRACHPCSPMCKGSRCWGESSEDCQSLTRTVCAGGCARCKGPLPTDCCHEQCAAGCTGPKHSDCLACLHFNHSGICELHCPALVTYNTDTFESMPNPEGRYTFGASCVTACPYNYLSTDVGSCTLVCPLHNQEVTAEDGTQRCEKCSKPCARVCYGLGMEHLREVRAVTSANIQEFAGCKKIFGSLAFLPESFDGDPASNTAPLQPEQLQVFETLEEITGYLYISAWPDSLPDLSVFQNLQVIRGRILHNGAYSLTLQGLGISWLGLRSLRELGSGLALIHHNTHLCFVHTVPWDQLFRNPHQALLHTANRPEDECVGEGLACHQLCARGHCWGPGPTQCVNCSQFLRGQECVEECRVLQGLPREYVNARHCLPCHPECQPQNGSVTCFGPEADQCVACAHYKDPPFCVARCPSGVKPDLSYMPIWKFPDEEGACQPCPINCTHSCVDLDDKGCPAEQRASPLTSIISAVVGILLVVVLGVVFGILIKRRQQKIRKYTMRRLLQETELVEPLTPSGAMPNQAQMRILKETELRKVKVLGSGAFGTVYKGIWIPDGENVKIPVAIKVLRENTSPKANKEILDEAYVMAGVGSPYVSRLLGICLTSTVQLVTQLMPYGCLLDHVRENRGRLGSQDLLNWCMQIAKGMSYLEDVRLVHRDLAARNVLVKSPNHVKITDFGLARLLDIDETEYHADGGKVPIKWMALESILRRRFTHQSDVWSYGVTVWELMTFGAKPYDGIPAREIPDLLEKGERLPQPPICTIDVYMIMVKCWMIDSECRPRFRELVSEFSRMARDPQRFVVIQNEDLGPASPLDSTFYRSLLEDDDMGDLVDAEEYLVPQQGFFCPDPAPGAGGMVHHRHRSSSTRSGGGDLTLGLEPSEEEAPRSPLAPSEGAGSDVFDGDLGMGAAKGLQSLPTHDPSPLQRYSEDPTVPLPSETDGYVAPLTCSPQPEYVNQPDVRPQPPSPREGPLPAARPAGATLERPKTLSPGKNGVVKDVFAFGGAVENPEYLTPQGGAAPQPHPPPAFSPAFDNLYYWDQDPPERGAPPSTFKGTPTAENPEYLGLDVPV
Text: as §5

FAK(h) = biological target: T4, FAK(h) (Homo sapiens, UniProt Q05397); test: Kinase panel (Eurofins); assay type: biochemical; details: n = 2; for inhibition at 1 µM: at 1 μmol/L; for IC50: read-out: IC50 kinase inhibition
T4 construct: purchased Eurofins
T4 sequence (Q05397 whole entry): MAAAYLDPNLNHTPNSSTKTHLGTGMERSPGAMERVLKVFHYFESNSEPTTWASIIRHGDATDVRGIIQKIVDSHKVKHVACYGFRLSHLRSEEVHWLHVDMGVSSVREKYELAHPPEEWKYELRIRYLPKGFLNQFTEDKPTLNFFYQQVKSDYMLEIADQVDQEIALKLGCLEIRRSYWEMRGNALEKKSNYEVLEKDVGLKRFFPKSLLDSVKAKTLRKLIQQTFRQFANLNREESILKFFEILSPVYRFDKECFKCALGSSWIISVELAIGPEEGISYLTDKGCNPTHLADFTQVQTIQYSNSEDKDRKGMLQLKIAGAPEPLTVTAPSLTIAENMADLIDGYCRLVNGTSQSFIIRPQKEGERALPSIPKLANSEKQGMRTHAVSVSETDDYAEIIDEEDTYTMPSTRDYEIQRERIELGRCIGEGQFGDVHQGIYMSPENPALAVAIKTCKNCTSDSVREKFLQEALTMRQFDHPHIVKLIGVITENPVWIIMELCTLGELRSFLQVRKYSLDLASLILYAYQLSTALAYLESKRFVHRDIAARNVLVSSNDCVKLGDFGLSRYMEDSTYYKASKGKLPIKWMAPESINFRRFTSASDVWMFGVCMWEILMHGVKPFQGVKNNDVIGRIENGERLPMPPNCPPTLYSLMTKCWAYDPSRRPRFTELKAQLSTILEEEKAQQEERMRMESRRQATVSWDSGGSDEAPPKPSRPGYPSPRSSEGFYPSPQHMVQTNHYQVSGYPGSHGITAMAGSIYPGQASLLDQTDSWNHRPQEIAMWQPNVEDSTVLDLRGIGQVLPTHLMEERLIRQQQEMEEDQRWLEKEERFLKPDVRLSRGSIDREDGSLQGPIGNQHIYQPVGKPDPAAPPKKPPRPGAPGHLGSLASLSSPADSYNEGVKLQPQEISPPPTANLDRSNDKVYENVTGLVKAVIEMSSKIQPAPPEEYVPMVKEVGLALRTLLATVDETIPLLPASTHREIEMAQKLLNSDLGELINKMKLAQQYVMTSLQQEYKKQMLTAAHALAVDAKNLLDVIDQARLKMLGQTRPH
Text: as §5

[3] = system: EGFR phosphorylation (pY1068) in NCI-H1975 cells; test: Phosphorylation of EGFR assay, time course; assay type: cell-based, human; details: 0.1 μmol/L, 1-10 h
Method: Cells (NCI-H1975/PC-9/[…]) were seeded into a 384-well plate (10,000 cells/well), grown for 24 h, and then treated with different test compounds (0.1 μmol/L) for 1, 2, 4, 6, 8 and 10 h. A431 cells were stimulated with 100 ng/ml EGF after incubation for 10 min. Cells were washed with ice-cold HBSS before extraction with 25 μl cell lysis buffer. Phosphorylation of EGFR was measured using a sandwich ELISA assay with phospho-specific EGFR (pY1068) antibodies [AlphaLISA SureFire p-EGF Receptor (Tyr1068) Assay Kit, PerkinElmer].

[4] = system: NCI-H1975 (EGFR^L858R/T790M); test: Cell proliferation assay (CTG, 72 h); assay type: cell-based; details: Homo sapiens, NCI-H1975 cells, mean ± SD, n = 3
Method: as §1, §2, §3

Structure (SMILES)	IC50 (H3255 (EGFR^L858R)) [nM]	IC50 (PC-9 (EGFR^d746–750)) [nM]	duration of continued inhibition of EGFR phosphorylation after wash-out [1]	duration of continued inhibition of EGFR phosphorylation after wash-out [2]	inhibition at 1 µM (MYO3B(h)) [%]	IC50 (MYO3B(h)) [nM]	inhibition at 1 µM (LTK(h)) [%]	IC50 (LTK(h)) [nM]	inhibition at 1 µM (ErbB2(h)) [%]	IC50 (ErbB2(h)) [nM]	inhibition at 1 µM (FAK(h)) [%]	IC50 (FAK(h)) [nM]	inhibitory effect on EGFR phosphorylation [3]	IC50 [4] [nM]	fold more sensitive than the inhibition of wild-type EGFR in A431 cells (H3255 (EGFR^L858R); H3255 vs A431, proliferation IC50) [fold]	fold more sensitive than the inhibition of wild-type EGFR in A431 cells (PC-9 (EGFR^d746–750); PC-9 vs A431, proliferation IC50) [fold]
C=CC(=O)Nc1cc(Nc2nccc(-c3c4n(c5ccccc35)CCCC4)n2)c(OC)cc1N(C)CCNC [Imp3]	17.1 ± 0.55	15 ± 0.65	at least 6 h	at least 6 h	67	506	93	61	83	197	87	267	stronger inhibitory effects on EGFR phosphorylation compared to osimertinib	6.56 ± 1.43		
C=CC(=O)Nc1cc(Nc2nccc(-c3c4n(c5ccccc35)CCCC4)n2)c(OC)cc1N(C)CCN(C)C [SH-1028]	9.39 ± 0.88	7.63 ± 0.18	at least 6 h	at least 6 h	58	349	83	81	72	55	68	235	stronger inhibitory effects on EGFR phosphorylation compared to osimertinib	3.93 ± 1.12	~83	~102
